Test results taken from patent publication US6495737B1, “Methods and compositions for improving salicylic acid-independent systemic acquired disease resistance in plants” (Rutgers, The State University of New Jersey, priority 1996, dated 2002).
Entries after “also recorded” stand apart in the source; their conditions may differ.

Columns and labels:
[1] = system: auxin-inducible glutathione S-transferase gene, GNT35; test: GNT35 gene expression in tobacco suspension cells treated with auxins (positive control); assay type: cell-based; conditions: 100 μM, hormone-free medium 2 days
Procedure: (§1) FIG. 12A: tobacco leaves were injected with water or 1 mM SA, INA or 4HBA. Samples were harvested at the times indicated and total RNA was extracted from treated tissue. Ten μg of RNA was loaded in each lane. FIG. 12B: quantification of EH-1 transcripts corresponding to the data from FIG. 12A. The method of quantification is described in FIG. 9. The experiments were done twice. FIG. 12C: cell cultures were subcultured for 2 days in hormone-free medium to deplete hormones. Water, 2,4-D or IAA were then added to the media at 100 μM. Cells were collected at the times indicated.
(§2) Cell suspension was treated with auxins as described by Xiang et al (1996). Cell cultures were grown in hormone-free medium for 2 days to deplete hormones in the medium. IAA (100 μM) and 2,4-D (100 μM) were added to the suspension. Cells were harvested at 0, 2, 6 and 12 h after addition of auxins. Water was added to the control.
(§3) Total RNA was isolated from tobacco tissue by phenol/chloroform as described in Example 1. Ten micrograms of total RNA was analyzed by electrophoresis in a 1.2% agarose gel containing formaldehyde and blotted to Nytran Plus membranes (Schleicher and Schuell). Blots were hybridized with [alpha-^32P]dCTP-labeled probes prepared by the random-priming method with a oligo labelling kit (Pharmacia). […] Following autoradiography, mRNA levels were quantitated using a Phosphorimager (Molecular Dynamics).

[2] = system: EH-1 gene; test: EH-1 gene expression in tobacco suspension cells treated with auxins; assay type: cell-based; conditions: 100 μM, hormone-free medium 2 days, 0-12 h
Procedure: as §1, §2, §3

[3] = system: Arabidopsis sEH gene; conditions: in vivo; cited from earlier work
[4] = system: seven groups of SIS genes (ACCO, ACCD, HMGR, APX, PR-3, SAR8.2, PAR-1); test: Northern analysis of SIS gene expression in tobacco leaves injected with chemicals; assay type: in vivo, Nicotiana tabacum cv. Xanthi nc; conditions: 1 mM injected into leaf
Procedure: (§4) One leaf on each plant was injected with water, 1 mM of SA, INA or 4-hydroxybenzoic acid (4HBA). At the times indicated, injected leaves from two similarly treated plants (˜5 g tissue) were harvested and total RNA was extracted. Ten μg of RNA was loaded in each lane. The experiment with all ten probes was done twice.
Tobacco (Nicotiana tabacum cv. Xanthi nc) plants and NahG-10 seeds, kindly provided by John Ryals at Novartis, Research Triangle, NC, were grown at 20° C. in a growth room with a 14-h day cycle. Two upper, fully expanded leaves of 6-8 week-old plants were infected with TMV strain U1 at a concentration of 1 μg/ml in 50 mM phosphate buffer (pH 7.2) containing carborundum. Control plants were treated with phosphate buffer and carborundum only. Inoculated plants were maintained in a 22° C. growth chamber until harvesting. In temperature shift experiments, plants were immediately put into a 32° C. growth chamber after infection with TMV. After a 48 h incubation period, the temperature was shifted from 32° C. to 22° C.
(§5) SA and its analog 4-hydroxybenzoic acid were purchased from Sigma. INA was provided by Uwe Conrath and Heinrich Kauss at Universitat Kaiserslautern, Germany. All chemicals were dissolved in water and adjusted a pH of 6.5 with NaOH. They were injected into plants at a concentration of 1 mM. Control plants were injected with distilled water.
(§6) Infected leaves were harvested and frozen in liquid nitrogen and stored at −80° C. until RNA extraction. Total RNA was extracted by phenol/chloroform essentially as described by Berry et al. (1985) with some modifications on the extraction buffer (50 mM Tris.HCl, pH8.0, 20 mM EDTA, 100 mM NaCl, and 2% SDS). For RNA blots, 10 μg of total RNA was loaded in each lane. RNA was separated on 1.2% agarose gels containing 18% formaldehyde and transferred to a Nytran Plus membrane (Schleicher and Schuell, Inc., Keene, N.H.). RNA was fixed to the membrane by cross-linking with UV light and then baked at 80° C. for 2 h. Prehybridization and hybridization were performed at 60° C. in 0.5M phosphate buffer (pH 7.2), containing 1% BSA, 7% SDS, and 1 mM EDTA (Church and Gilbert, 1984). The membranes were washed twice in 2×SSC at room temperature for 10 min each, twice in 2×SSC containing 0.5% SDS at 65° C. for 30 min, and twice in 0.1×SSC at room temperature for 30 min each. The probes were prepared from linearized DNA fragments and labeled with ^32p using the random-prime labeling method (Feinberg and Vogelstein, 1984). The PR-1a DNA clone was previously isolated in our lab and the tobacco PAL DNA clone was kindly provided by Michel Legrand and Bernard Fritig, Centre National de la Recherche Scientifique, Strasbourg, France.

[5] = system: fungal pathogen; conditions: cited from earlier work; for effectiveness at protecting / inducing resistance to fungal infection in barley: highly susceptible barley cultivar
[6] = system: potato suspension cells; conditions: cited from earlier work
[7] = system: EH-1 gene; test: EH-1 gene expression in tobacco leaves injected with chemicals; assay type: in vivo, Nicotiana tabacum; conditions: 1 mM injected into leaf
Procedure: as §1
(§7) 2,4-D, […], and its analog 4HBA were purchased from Sigma. IAA was purchased from GIBCO BRL. INA was provided by Uwe Conrath at Universitat Kaiserslautern, Germany. SA, 4HBA and INA were dissolved in water and adjusted to […] pH of 6.5. They were injected into plants at a concentration of 1 mM with a needle-less syringe. Control plants were injected with distilled water. IAA and 2,4-D was dissolved in 0.2% ethanol.
as §3, with “Schuell).” for “Schuell). Blots were hybridized with [alpha-^32P]dCTP-labeled probes prepared by the random-priming method with a oligo labelling kit (Pharmacia).”

[8] = system: PR-1 genes; test: Northern analysis of PR-1 gene expression in tobacco leaves injected with chemicals; assay type: in vivo, Nicotiana tabacum cv. Xanthi nc; conditions: for induction of PR-1 genes (in words): exogenous treatment of tobacco
Procedure: as §4, §5, §6, §7
as §3, with “Schuell).” for “Schuell). Blots were hybridized with [alpha-^32P]dCTP-labeled probes prepared by the random-priming method with a oligo labelling kit (Pharmacia).”

[9] = system: PAL genes; test: Northern analysis of PAL gene expression in tobacco leaves injected with chemicals; assay type: in vivo, Nicotiana tabacum cv. Xanthi nc; conditions: 1 mM injected into leaf
Procedure: as §4, §5
Infected leaves were harvested and frozen in liquid nitrogen and stored at −80° C. until RNA extraction. Total RNA was extracted by phenol/chloroform essentially as described by Berry et al. (1985) with some modifications on the extraction buffer (50 mM Tris.HCl, pH8.0, 20 mM EDTA, 100 mM NaCl, and 2% SDS). For RNA blots, 10 μg of total RNA was loaded in each lane. RNA was separated on 1.2% agarose gels containing 18% formaldehyde and transferred to a Nytran Plus membrane (Schleicher and Schuell, Inc., Keene, N.H.). RNA was fixed to the membrane by cross-linking with UV light and then baked at 80° C. for 2 h. […]

O=C(O)COc1ccc(Cl)cc1Cl [2,4-D, 2,4-dichlorophenoxy acetic acid]
induction of GNT35 expression (in words) [1]: rapidly induced | induction of EH-1 expression (in words) [2]: Little or no induction | induction of Arabidopsis sEH gene [3]: induced by auxins

O=C(O)c1ccc(O)cc1 [4HBA, 4-hydroxybenzoic acid]
activation of the seven groups of SIS genes (in words) [4]: failed to activate these genes

O=C(O)CCCCCCCC(O)C(O)CCCCCCCCO (stereo not shown) [9,10,18-trihydroxystearic acid]
effectiveness at protecting / inducing resistance to fungal infection in barley [5]: nearly as effective | toxicity relative to HESA ([5]; in vivo): less toxic than HESA | alkalinization of media [6]: to a lesser extent than HESA

O=C(O)CCCCCCCC1OC1CCCCCCCCO (stereo not drawn) [HESA, cis-9,10-epoxy-18-hydroxystearic acid]
effectiveness at protecting / inducing resistance to fungal infection in barley [5]: most effective | alkalinization of media [6]: caused the rapid alkalinization

O=C(O)Cc1c[nH]c2ccccc12 [IAA, indole-3-acetic acid]
induction of GNT35 expression (in words) [1]: rapidly induced | induction of EH-1 expression (in words) [2]: Little or no induction | induction of Arabidopsis sEH gene [3]: induced by auxins

O=C(O)c1cc(Cl)nc(Cl)c1 [INA, 2,6-dichloroisonicotinic acid]
EH-1 transcript accumulation (in words) [7]: induced a transient accumulation of EH-1 transcripts; also recorded: accumulate rapidly and transiently | activation of the seven groups of SIS genes (in words) [4]: induced by INA, generally in a transient manner; also recorded: rapid and transient activation of six of the seven groups | induction of PR-1 genes (in words) [8]: slow and sustained | induction of PAL gene expression (in words) [9]: neither SA nor INA can induce PAL gene expression

O=C(O)c1ccccc1O [SA, salicylic acid]
activation of the seven groups of SIS genes (in words) [4]: induced their expression transiently; also recorded: rapid and transient activation of six of the seven groups | time post treatment by which SIS mRNA levels had declined [4]: ≤ 24 h | time post treatment by which mRNA levels for all SIS genes had peaked [4]: ≤ 12 h | time after injection by which six of the seven groups of SIS genes were induced ([4]; Northern blot): 4 to 6 h | time after treatment at which increased expression of PAR-1 was detected ([4]; this experiment): 12 h | time post treatment at which PR-1 mRNAs were first detected ([8]; 1 mM injected into leaf, Example 1): 12 h | time post treatment at which PR-1 transcripts were first detected ([8]; 1 mM injected into leaf, Example 2): 12 h | induction of PR-1 genes (in words) [8]: slow and sustained | induction of PAL gene expression (in words) [9]: little, if any, induction of PAL; also recorded: neither SA nor INA can induce PAL gene expression
